{
  "source": "paper PMC7179450",
  "about": "“Primary Human Hepatocytes, But not HepG2 or Balb/c 3T3 Cells, Efficiently Metabolize Salinomycin and Are Resistant to Its Cytotoxicity” (Molecules, 2020)",
  "key": {"Balb/c 3T3 cells": {"test_system": "Balb/c 3T3 cells", "assay": "NRU assay in Balb/c 3T3", "format": "cell-based, mouse", "settings": "for EC50: Mus musculus, read-out: EC50 (effective concentration)", "experimental": "The HepG2 cell line was purchased from the American Type Culture Collection (ATCC® HB-8065™). The cells were cultured in Minimum Essential Medium Eagle (MEME) (Sigma–Aldrich Co. (St. Louis, MO, USA)). Normal murine embryonic fibroblasts, Balb/c 3T3 clone A31 cell line (gift from Department of Swine Diseases of the National Veterinary Research Institute in Pulawy) was cultured in Dulbecco’s Modified Eagle’s Medium (DMEM) (Invitrogen Corporations (Paisley, UK)). The media were supplemented with 10% BCS (Balb/c 3T3), 10% FBS (HepG2), 1% L-glutamine, and 1% antibiotic solution. The cells were maintained in 75 cm^2 cell culture flasks in humidified incubator at 37 °C, in an atmosphere of 5% CO2. The medium was refreshed every two or three days and the cells were trypsinized by 0.25% trypsin–0.02% EDTA after reaching 70–80% confluence. The initial cell viability was determined with the trypan blue exclusion test. Single cell suspensions were prepared and adjusted to a density of 2 × 10^5 cell/mL (HepG2) and 1 × 10^5 cell/mL (Balb/c 3T3). The cell suspension was transferred to 96-well plates (100 µL/well) and incubated for 24 h before exposure to the studied drugs.\nThe concentration ranges of the drugs were chosen according to their solubility and their plasma level. Each drug was dissolved in DMSO. The final concentration of DMSO was 0.1% or 0.2% in the medium for both samples and corresponding controls. […] All drug solutions in medium were freshly prepared and protected from light. SAL was tested in seven concentrations from 0.39 to 25 µg/mL. […] The cytotoxicity was assessed after 24 and 48 h of exposure of cell lines or after 12 and 24 h exposure of PHH. […]\nThe assay, based on staining of living cells by neutral red (NR), was performed according to the protocol described by Borenfreund and Puerner. […] After 10 min of shaking, the absorbance of the dissolved NR was measured at 540 nm using a blank as a reference. Cytotoxicity was expressed as a percentage of the negative control (0.1% or 0.2% DMSO)."}, "[1]": {"test_system": "primary human hepatocytes (PHH)", "assay": "Biotransformation of SAL and metabolites in medium of PHH (LC-MS/MS)", "format": "in vitro ADME", "experimental": "Cryopreserved PHH were purchased from the Primacyt GmbH (Schwerin, Germany). Two different lots were chosen based on CYP activity. The donor was a person. The post-thaw viability was 94.6% for lot HH160531 (used in two repetitions) and 85.0% for lot HH130805. The initial cell viability was determined with the trypan blue exclusion test. The cells were thawed and purified using the Plating and Thawing Kit (Primacyt GmbH). Purified hepatocytes were resuspended in Hepatocyte Plating Medium (Primacyt GmbH) and seeded on collagen-coated 96-well plates at a density of 9 × 10^5 cell/mL and incubated at 37 °C with 5% CO2. After 6 h of incubation, the medium was removed and the cells were washed with PBS. […]\nThe medium samples from microplate wells were collected for identifying SAL metabolites and normalized to a cell number. An aliquot of 200 µL of each sample was measured to Eppendorf tube. […] The dry residue was reconstituted in 50% acetonitrile and analyzed with LC-MS/MS. […]\nSAL (m/z 773.4 to m/z 431.3) was monitored in multiple reaction monitoring (MRM) modes. […]\nThe signals for further analysis were selected with the LightSight 2.3 software. […] These MRM transitions (with 20 chromatographic peaks) were then quantified with Multiquant 2.1. software. Quantitative analysis was performed for SAL. […]"}, "dogs": {"test_system": "dogs", "settings": "chronic toxicity study in dogs; cited from earlier work"}, "rats": {"test_system": "rats", "settings": "cited from earlier work"}, "[2]": {"settings": "mouse, in vivo; cited from earlier work"}},
  "note": "Read-outs that look alike come from different tables or passages of the source.",
  "data": [
    {"smiles": "CC[C@@H](C(=O)[C@@H](C)[C@@H](O)[C@H](C)[C@@H]1O[C@@H]([C@@H](CC)C(=O)O)CC[C@@H]1C)[C@H]1O[C@]2(C=C[C@@H](O)[C@]3(CC[C@@](C)([C@H]4CC[C@](O)(CC)[C@H](C)O4)O3)O2)[C@H](C)C[C@@H]1C", "note": "[SAL, salinomycin]", "values": [
      {"measurement": "lowest concentration with significant effect on lysosomal activity", "setting": "Balb/c 3T3 cells; Balb/c 3T3, 24 h, SAL alone or in both drug combinations (Figure S3)", "value": 0.39, "unit": "µg/mL"},
      {"measurement": "EC50", "setting": "Balb/c 3T3 cells; BALB/c3T3, 24 h", "value": "0.6 ± 0.2", "unit": "µg/mL"},
      {"measurement": "EC50", "setting": "Balb/c 3T3 cells; BALB/c3T3, 48 h", "value": "< 0.39", "unit": "µg/mL"},
      {"measurement": "SAL metabolised, share of the dose", "setting": "[1]; PHH", "value": "up to 90%"},
      {"measurement": "maximum percentage of bio-transformed SAL", "setting": "[1]; PHH co-exposed with tiamulin", "value": 25, "unit": "%"},
      {"measurement": "NOAEL (No Observed Adverse Effect Level)", "setting": "dogs", "value": 500, "unit": "µg/kg b.w."},
      {"measurement": "LD50", "setting": "rats", "value": 50, "unit": "mg/kg b.w."},
      {"measurement": "unchanged SAL in excreta, share of administered dose", "setting": "[2]", "value": 2, "unit": "%"}
    ]}
  ]
}
